For orientation: IC50 means the concentration needed to halve the response being measured.

Results on 42 compounds are retold here after patent US12065445B2, “CDK2 inhibitors and methods of using the same” (Cedilla Therapeutics, Inc., priority 2021, dated 2024).

This test concerns Kuramochi cells labeled with mApple-H2B. In words: IncuCyte Cell Proliferation Assay. It counts as cell-based. The following applies: 72 h. The procedure: IncuCyte® assay was used to measure the effect of disclosed compounds on cell proliferation. Fluorescent microscopy images of cells were taken immediately after compound treatment and 72 hours later. Image analysis software was used to obtain cell counts as a function of compound concentration. Kuramochi cells labeled with mApple-H2B were seeded on 384-well assay-ready plates. Plates were placed in an IncuCyte® (Sartorius) and scanned at 0 and 72 hours. IncuCyte® software was used to count the number of fluorescent nuclei in each well. The fold change in cell count from 0 to 72 hours in wells treated with increasing compounds concentrations (10 pts, ½ log dilution, 20 μM top concentration) was normalized to DMSO control wells. The normalized cell counts were fit with dose response curves and a […] was calculated.
Consider `C[C@@H](OCC1(C(F)(F)F)CC1)[C@H](NC(=O)[C@H]1CN(C(=O)c2cncs2)CC12CN(C(=O)[C@H]1CC1(C)C)C2)C(=O)N1CCC(F)(F)CC1` [I-291], for which the 50% inhibitory concentration (IC50) is greater than 20 µM.

For the compound `CNC(=O)[C@@H](NC(=O)[C@@H]1CN(C(=O)c2cncs2)CC12CN(CC1CCCO1)C2)[C@@H](C)OCC1CCCCC1` (stereo partly drawn) [I-352], the IC50 was greater than 20 µM. The compound `CNC(=O)[C@@H](NC(=O)[C@]1(C)CN(C(=O)c2cnn(Cc3ccccc3)c2)CC12CN(C(=O)[C@H]1CC1(C)C)C2)[C@@H](C)OCC1CCCCC1` [I-499A] registered an IC50 greater than 20 µM. Compound `COC[C@H]1CCCN(C(=O)[C@@H](NC(=O)[C@@H]2CN(C(=O)c3cncs3)CC23CN(C(=O)C(C)(C)C2CC2)C3)[C@@H](C)OC[C@H]2CC[C@H](O)CC2)C1` [I-431] yielded an IC50 greater than 20 µM. With `C[C@@H](OCC12CCC(CC1)OC2)[C@H](NC(=O)[C@@H]1CN(C(=O)c2cncs2)CC12CN(C(=O)[C@H]1CC1(C)C)C2)C(=O)N1CCC(C)(C)CC1` [I-452], the IC50 was no more than 0.5 µM. To `Cc1ccc(CNC(=O)[C@@H]2CN(C(=O)c3cnn(Cc4ccccn4)c3)CC23CN(C(=O)[C@H]2CC2(C)C)C3)nn1` [I-417] belongs greater than 20 µM; to `Cc1ccc(CNC(=O)[C@@H]2CN(C(=O)c3cnn(Cc4ccncc4F)c3)CC23CN(C(=O)[C@H]2CC2(C)C)C3)nn1` [I-35], greater than 20 µM. In the case of `[2H]C([2H])([2H])OC[C@H]1CCCN(C(=O)[C@@H](NC(=O)[C@@H]2CN(C(=O)c3cncs3)CC23CN(C(=O)C(C)(C)C2CC2)C3)[C@@H](C)OCC23CCC(CC2)OC3)C1` [I-459], the IC50 is 5 to 20 µM.

In turn, `Cc1ccc(CNC(=O)[C@@H]2CN(C(=O)c3cnn(Cc4ccccc4)c3)CC23CN(C(=O)C(C)(C)C2CC2)C3)nn1` [I-387, (S)-6-(1-benzyl-1H-pyrazole-4-carbonyl)-2-(2-cyclopropyl-2-methylpropanoyl)-N-((6-methylpyridazin-3-yl)methyl)-2,6-diazaspiro[3.4]octane-8-carboxamide] showed an IC50 greater than 20 µM.

In the case of `C[C@@H](OCc1ccc(Cl)cc1)[C@@H](CO)NC(=O)[C@@H]1CN(C(=O)c2cncs2)CC12CN(C(=O)[C@H]1CC1(C)C)C2` [I-404], the IC50 is greater than 20 µM. To `C[C@@H](OCC12CCC(CC1)OC2)[C@H](NC(=O)[C@@H]1CN(C(=O)c2cncs2)CC12CN(C(=O)[C@H]1CC1(C)C)C2)C(=O)N1CCC(C(F)(F)F)CC1` [I-454, (S)—N-((2S,3R)-3-((2-oxabicyclo[2.2.2]octan-4-yl)methoxy)-1-oxo-1-(4-(trifluoromethyl)piperidin-1-yl)butan-2-yl)-2-((S)-2,2-dimethylcyclopropane-1-carbonyl)-6-(thiazole-5-carbonyl)-2,6-diazaspiro[3.4]octane-8-carboxamide] belongs 0.5 to 5 µM. In turn, `CC(O[C@H](C)[C@@H](COC1CCC(F)(F)CC1)NC(=O)[C@@H]1CN(C(=O)c2cncs2)CC12CN(C(=O)[C@H]1CC1(F)F)C2)C1CCC(F)(F)CC1` (stereo partly drawn) [I-316] yielded an IC50 greater than 20 µM. Consider `COC[C@H]1CCCN(C(=O)[C@@H](NC(=O)[C@@H]2CN(C(=O)c3cncs3)CC23CN(C(=O)[C@H]2CC2(C)C)C3)[C@@H](C)OC[C@H]2CC[C@H](N)CC2)C1` [I-433], for which the concentration for half-maximal inhibition (IC50) was greater than 20 µM. Compound `COC[C@H]1CCCN(C(=O)[C@@H](NC(=O)[C@@H]2CN(C(=O)c3cncs3)CC23CN(C(=O)[C@H]2CC2(C)C)C3)[C@@H](C)OCC2CCC3(CCC3)CC2)C1` [I-390] returned an IC50 of no more than 0.5 µM. In the case of `COC[C@H]1CCCN(C(=O)[C@@H](NC(=O)[C@@H]2CN(C(=O)c3cncs3)CC23CN(C(=O)[C@H]2CC2(C)C)C3)[C@@H](C)OC[C@H]2CC[C@H](NC(C)=O)CC2)C1` [I-434], the concentration for half-maximal inhibition (IC50) is greater than 20 µM.

Compound `CC1(C)C[C@@H]1C(=O)N1CC2(CN(C(=O)c3cncs3)C[C@H]2C(=O)NC(CO)c2cccc(C3CCC(F)(F)CC3)n2)C1` (stereo partly drawn) [I-419] returned an IC50 greater than 20 µM. On to `C[C@@H](OCc1ccccc1)[C@H](NC(=O)[C@@H]1CN(C(=O)c2cnn(Cc3ccccc3)c2)CC12CN(C(=O)[C@H]1CC1(C)C)C2)C(=O)N(C)C` [I-409], for which the IC50 was in the range of 0.5 to 5 µM.

Consider `COC[C@H]1CCCN(C(=O)[C@@H](NC(=O)[C@@H]2CN(C(=O)c3cncs3)CC23CN(C(=O)[C@H]2CC2(C)C)C3)[C@@H](C)OCc2ccc(OC(F)(F)F)cc2)C1` [I-320], for which the IC50 lay within 0.5 to 5 µM. `CNC(=O)[C@@H](NC(=O)[C@@H]1CN(C(=O)c2cncs2)CC12CN(CC(C)(C)C)C2)[C@@H](C)OCC12CCC(CC1)OC2` [I-347] registered an IC50 greater than 20 µM. In the case of `Cc1ccc(CNC(=O)[C@@H]2CN(C(=O)c3cnc(Cc4ccccc4)s3)CC23CN(C(=O)[C@H]2CC2(C)C)C3)nn1` [I-405], the IC50 is greater than 20 µM.

With `CNC(=O)[C@@H](NC(=O)C1(C)CN(C(=O)c2cnn(Cc3ccccc3)c2)CC12CN(C(=O)[C@H]1CC1(C)C)C2)[C@@H](C)OCc1ccccc1` (stereo partly drawn) [I-498, 6-(1-benzyl-1H-pyrazole-4-carbonyl)-N-((2S,3R)-3-(benzyloxy)-1-(methylamino)-1-oxobutan-2-yl)-2-((S)-2,2-dimethylcyclopropane-1-carbonyl)-8-methyl-2,6-diazaspiro[3.4]octane-8-carboxamide], the concentration for half-maximal inhibition (IC50) was greater than 20 µM. As for `C[C@@H](OCC1CCCCC1)[C@H](NC(=O)[C@@H]1CN(C(=O)c2cnn(Cc3ccccc3)c2)CC12CN(C(=O)[C@H]1CC1(C)C)C2)C(=O)N1CCC(c2nnco2)CC1` [I-449], the IC50 is no more than 0.5 µM. `C[C@@H](OCc1ccc(C(F)(F)F)cc1)[C@H](NC(=O)[C@@H]1CN(C(=O)c2cncs2)CC12CN(C(=O)[C@H]1CC1(C)C)C2)C(=O)N1C2CCC1COC2` [I-470] gave an IC50 of 0.5 to 5 µM. `CNC(=O)C(NC(=O)[C@@H]1CN(C(=O)c2cnn(Cc3ccccc3)c2)CC12CN(C(=O)[C@H]1CC1(C)C)C2)c1cccc(C2CCCCC2)n1` (stereo partly drawn) [I-391] gave an IC50 of 0.5 to 5 µM. As for `Cc1nc(C)c(C(=O)N2C[C@@H](C(=O)N[C@H](C(=O)N3CCC(OC(F)(F)F)CC3)[C@@H](C)OCC34CCC(CC3)OC4)C3(C2)CN(C(=O)[C@H]2CC2(C)C)C3)s1` [I-455], the IC50 was 0.5 to 5 µM. Turning to `C[C@@H](OCC1CCCCC1)C(NC(=O)[C@@H]1CN(C(=O)c2cncs2)CC12CN(C(=O)[C@H]1CC1(C)C)C2)c1nnco1` (stereo in doubt) [I-415, (S)—N-((1S,2R)-2-(cyclohexylmethoxy)-1-(1,3,4-oxadiazol-2-yl)propyl)-2-((S)-2,2-dimethylcyclopropane-1-carbonyl)-6-(thiazole-5-carbonyl)-2,6-diazaspiro[3.4]octane-8-carboxamide], the IC50 was 0.5 to 5 µM. Compound `CC(C)(O)C(NC(=O)[C@@H]1CN(C(=O)c2cncs2)CC12CN(C(=O)C(C)(C)C1CC1)C2)c1cccc(C2CCOCC2)n1` (stereo partly drawn) [I-339] gave an IC50 greater than 20 µM. Compound `C[C@@H](OCC1CCCCC1)[C@@H](COC1CCOCC1)NC(=O)[C@@H]1CN(C(=O)c2cncs2)CC12CN(C(=O)[C@H]1CC1(C)C)C2` [I-331] gave a concentration for half-maximal inhibition (IC50) of no more than 0.5 µM. As to `C[C@@H](OCC12CCC(CC1)OC2)[C@H](NC(=O)[C@@H]1CN(C(=O)c2sc(Cl)nc2Cl)CC12CN(C(=O)C(C)(C)C1CC1)C2)C(C)(C)O` [I-471], the IC50 is greater than 20 µM. For the compound `C[C@@H](OCC12CCC(CC1)OC2)[C@H](NC(=O)[C@@H]1CN(C(=O)c2cnco2)CC12CN(C(=O)C(C)(C)C1CC1)C2)C(C)(C)O` [I-448], the 50% inhibitory concentration (IC50) is greater than 20 µM. As to `CNC(=O)[C@@H](NC(=O)[C@@H]1CN(C(=O)c2cncs2)CC12CN(Cc1ccn[nH]1)C2)[C@@H](C)OCC12CCC(CC1)OC2` [I-351], the IC50 is greater than 20 µM.

Compound `CNC(=O)C(NC(=O)[C@@H]1CN(C(=O)c2cncs2)CC12CN(C(=O)C(C)(C)C1CC1)C2)c1cccc(C2CCCCC2)n1` (stereo partly drawn) [I-410, (8S)—N-(1-(6-cyclohexylpyridin-2-yl)-2-(methylamino)-2-oxoethyl)-2-(2-cyclopropyl-2-methylpropanoyl)-6-(thiazole-5-carbonyl)-2,6-diazaspiro[3.4]octane-8-carboxamide] registered an IC50 of 0.5 to 5 µM. Regarding `CNC(=O)C(NC(=O)[C@@H]1CN(C(=O)c2cnn(Cc3ccccc3)c2)CC12CN(C(=O)[C@H]1CC1(C)C)C2)c1ccc(C)nn1` (stereo partly drawn) [I-421], the IC50 was greater than 20 µM.

Compound `CN(C)C(=O)C(NC(=O)[C@@H]1CN(C(=O)c2cncs2)CC12CN(C(=O)C(C)(C)C1CC1)C2)c1cccc(C2CCOCC2)n1` (stereo partly drawn) [I-340] displayed an IC50 greater than 20 µM.

For `C[C@@H](OCC1CCCCC1)[C@H](NC(=O)[C@@H]1CN(C(=O)c2cnn(Cc3ccccc3)c2)CC12CN(C(=O)[C@H]1CC1(C)C)C2)C(=O)N1CCC(c2nccs2)CC1` [I-445], the IC50 is no more than 0.5 µM. To `C[C@@H](OCC12CCC(CC1)OC2)[C@H](NC(=O)[C@@H]1CN(C(=O)c2cncs2)CC12CN(C(=O)[C@H]1CC1(C)C)C2)C(=O)N1CCC[C@H](COC(F)F)C1` [I-461] belongs 0.5 to 5 µM. In turn, `C[C@@H](OCC12CCC(CC1)OC2)[C@H](NC(=O)[C@@H]1CN(C(=O)c2cncs2)CC12CN(C(=O)[C@H]1CC1(C)C)C2)C(=O)N1CCC2(CC1)CC2` [I-458] registered an IC50 of 0.5 to 5 µM. Compound `CNC(=O)[C@@H](NC(=O)[C@@H]1CN(C(=O)c2cnn(Cc3ccc(C(=O)O)cc3)c2)CC12CN(C(=O)[C@H]1CC1(C)C)C2)[C@@H](C)OCc1ccccc1` [I-476] came in with an IC50 greater than 20 µM.

`Cc1nc(C)c(C(=O)N2C[C@@H](C(=O)N[C@H](C(=O)N3CCC4(CC3)COC4)[C@@H](C)OCC34CCC(CC3)OC4)C3(C2)CN(C(=O)[C@H]2CC2(C)C)C3)s1` [I-343] displayed an IC50 greater than 20 µM.

For the compound `CNC(=O)[C@@H](NC(=O)[C@@]1(C)CN(C(=O)c2cnn(Cc3ccccc3)c2)CC12CN(C(=O)[C@H]1CC1(C)C)C2)[C@@H](C)OCC1CCCCC1` [I-499B], the IC50 is greater than 20 µM.

Compound `C[C@@H](OCc1ccccc1)[C@H](NC(=O)[C@@H]1CN(C(=O)c2cncs2)CC12CN(C(=O)[C@H]1CC1(C)C)C2)C(=O)N(C)C` [I-416] gave an IC50 of 5 to 20 µM. With `C[C@@H](OCC1CCCCC1)[C@@H](COC1CCCNC1)NC(=O)[C@@H]1CN(C(=O)c2cncs2)CC12CN(C(=O)[C@H]1CC1(C)C)C2` (stereo partly drawn) [I-332], the IC50 is 5 to 20 µM.
